Source: US4701205A, “Chemical tobacco sucker control” (Chevron Research Company, priority 1986, dated 1987)
Read-outs that look alike come from different tables or passages of the source.

Columns and labels:
[1] = tested on: tobacco suckers (axillary buds), Var. 12 × L8; assay: whole plant or invertebrate; type: in vivo, Nicotiana tabacum; settings: for inhibition at 200 µg/mL / inhibition at 400 µg/mL / inhibition at 800 µg/mL: Nicotiana tabacum, read-out: Percent Bud Inhibition Top Two Nodes; for Mean # of Nodes with Secondary Suckers / Mean Sucker Length (cm): Table 3
Protocol: (§1) Twenty-four hours before treatment, the tobacco plants are "topped", removing the top 15 cm of the plant. Any plants which are tending to lean or bend in the pot were staked, and all pots labeled. Three to five replicates were used per treatment. A 5% wt. stock solution of each test compound dissolved in acetone containing a small amount of non-ionic emulsifier was prepared. The stock solution was appropriately diluted with deionized water containing 0.625 g of emulsifier per liter of water, to the desired spray solution concentration.
(§2) Plants were sprayed to point of run-off with a pressure atomizer, making sure that the stem, leaf axils, and leaves were all wet thoroughly with the solution. 30 to 35 ml of solution were used per plant. This was checked by recording volume of solution in sprayer reservoir before and after treatment. After spraying, the plants were incubated for 18 to 23 days in a greenhouse maintained at 70°-80° F. using standing water capilliary irrigation. The plants were uniformly fertilized once per week with a standard house plant fertilizer. After the incubation period, the plants were evaluated at various times for sucker control. […] The growth of secondary suckers (buds at lower nodes) when present, were also measured.
(§3) In some instances, comparisons were also made on the basis of sucker length.
(§4) The results are reported as an average of the replicates used in each test.
(§5) In this example, the title compound of Example 1 was tested side-by-side with maleic hydrazide ("C-2") with respect to axillary bud control in two varities of tobacco plants. These tests were conducted following the same general procedure as described in Example 3 hereinabove using the dosage concentrations given in the tables hereinbelow. […]

[2] = tested on: tobacco suckers (axillary buds); assay: Tobacco sucker control, foliar paint (expanded leaves only); type: in vivo; settings: for inhibition at 400 µg/mL: Nicotiana tabacum, read-out: Percent Bud Inhibition Top Three Nodes; for Sucker control when applied only to the leaves (systemic action), in words: applied only to the leaves of the tobacco plant
Protocol: as §1
(§6) Plants were sprayed to point of run-off with a pressure atomizer, making sure that the stem, leaf axils, and leaves were all wet thoroughly with the solution. 30 to 35 ml of solution were used per plant. This was checked by recording volume of solution in sprayer reservoir before and after treatment. After spraying, the plants were incubated for 18 to 23 days in a greenhouse maintained at 70°-80° F. using standing water capilliary irrigation. The plants were uniformly fertilized once per week with a standard house plant fertilizer. After the incubation period, the plants were evaluated at various times for sucker control. To make this evaluation, the axillary buds at the top three nodes (primary suckers) of each plant were compared to those of the check, and a visual estimation of percent inhibition was made wherein 0=no inhibition of axillary buds as compared with check and 100=no axillary buds at top three nodes. The growth of secondary suckers (buds at lower nodes) when present, were also measured.
(§7) In this example, the title compound of Example 1 was tested side-by-side with maleic hydrazide for tobacco sucker control (inhibition), when applied as a soil drench and also when applied only to the leaves of the plant. The same general procedure as described in Example 3 was used with the exception that the test compound was applied only to the expanded leaves for foliage treatment (foliar paint) and the compound was drenched only on the soil in the pot for soil drench treatment. The average results of these tests are given in the following table, wherein 0=no inhibition and 100=complete inhibition, i.e., no axillary buds.

[3] = tested on: tobacco suckers (axillary buds); assay: Tobacco sucker control, soil drench treatment; type: in vivo; settings: for inhibition at 400 µg/mL: Nicotiana tabacum, read-out: Percent Bud Inhibition Top Three Nodes
Protocol: as §1, §6, §7

[4] = tested on: tobacco suckers (axillary buds), Var. Glurk; assay: Tobacco sucker control, spray to run-off on topped plants, Var. Glurk; type: in vivo, Nicotiana tabacum; settings: for inhibition at 200 µg/mL / inhibition at 400 µg/mL / inhibition at 800 µg/mL / inhibition at 1600 µg/mL: Nicotiana tabacum; for Mean # of Nodes with Secondary Suckers / Mean Sucker Length (cm): Table 3
Protocol: In this example, the title compound of Example 1 (i.e., 2-[1-(3-trans-chloroallyloxyamino)ethylidene]-5-(2-ethylthiopropyl)cyclohexane-1,3-dione was tested side-by-side with 2-[1-(3-trans-chloroallyloxyamino)butylidene]-5-(2-ethylthio-propyl)-cyclohexane-1,3-dione for their ability to control (retard or prevent) lateral axillary buds in tobacco plants.
as §1, §2, §3, §4, §5

[5] = 200 mg/l spray, six weeks after treatment
[6] = 400 mg/l spray, six weeks after treatment
[7] = 800 mg/l spray, six weeks after treatment
[8] = 504 h, Table I, 400 mg/l spray, three weeks after treatment, read-out: Percent Bud Inhibition
[9] = 504 h, Table I, 800 mg/l spray, three weeks after treatment, read-out: Percent Bud Inhibition
[10] = 504 h, Table I, 1600 mg/l spray, three weeks after treatment, read-out: Percent Bud Inhibition
[11] = 1008 h, Table I, 400 mg/l spray, six weeks after treatment, read-out: Percent Bud Inhibition Top two Nodes
[12] = 1008 h, Table I, 800 mg/l spray, six weeks after treatment, read-out: Percent Bud Inhibition Top two Nodes
[13] = 1008 h, Table I, 1600 mg/l spray, six weeks after treatment, read-out: Percent Bud Inhibition Top two Nodes
[14] = Table I, 400 mg/l spray, six weeks after treatment
[15] = Table I, 400 mg/l spray, three weeks after treatment
[16] = Table I, 800 mg/l spray, six weeks after treatment
[17] = Table I, 800 mg/l spray, three weeks after treatment
[18] = Table I, 1600 mg/l spray, six weeks after treatment
[19] = Table I, 1600 mg/l spray, three weeks after treatment
[20] = Soil Drench, 400 mg/l, six weeks after treatment
[21] = 504 h, read-out: Percent Bud Inhibition Top Two Nodes
[22] = 1008 h, read-out: Percent Bud Inhibition Top Two Nodes

CCSC(C)CC1CC(=O)C(=C(C)NOC/C=C/Cl)C(=O)C1 (stereo not drawn) [Compound 1, Trans-2-[1-(3-chloroallyloxyamino)-ethylidene]-5-(2-ethylthiopropyl)-cyclohexane-1,3-dione]
inhibition at 200 µg/mL ([1]; 504 h, Table 2, 200 mg/l spray, three weeks after treatment): 95%
inhibition at 400 µg/mL ([1]; 504 h, Table 2, 400 mg/l spray, three weeks after treatment): 93%
inhibition at 800 µg/mL ([1]; 504 h, Table 2, 800 mg/l spray, three weeks after treatment): 95%
inhibition at 200 µg/mL ([1]; 1008 h, Table 2, 200 mg/l spray, six weeks after treatment): 86.3%
inhibition at 400 µg/mL ([1]; 1008 h, Table 2, 400 mg/l spray, six weeks after treatment): 96.9%
inhibition at 800 µg/mL ([1]; 1008 h, Table 2, 800 mg/l spray, six weeks after treatment): 96.8%
Mean # of Nodes with Secondary Suckers [1, 5]: 4.0
Mean Sucker Length (cm) [1, 5]: 24.0 cm
Mean # of Nodes with Secondary Suckers [1, 6]: 2.6
Mean Sucker Length (cm) [1, 6]: 45.3 cm
Mean # of Nodes with Secondary Suckers [1, 7]: 2.3
Mean Sucker Length (cm) [1, 7]: 17.4 cm
Observation on suckers at basal nodes (footnote a) ([2]; Foliar Paint, 400 mg/l, six weeks after treatment): some suckers appearing at basal nodes
inhibition at 400 µg/mL ([2]; 504 h, Foliar Paint (Leaves Only), 400 mg/l, three weeks after treatment): 98%
inhibition at 400 µg/mL ([2]; 1008 h, Foliar Paint (Leaves Only), 400 mg/l, six weeks after treatment): 99%
Sucker control when applied only to the leaves (systemic action), in words [2]: highly effective
inhibition at 400 µg/mL ([3]; 504 h, Soil Drench (30 ml/pot), 400 mg/l, three weeks after treatment): 100%
inhibition at 400 µg/mL ([3]; 1008 h, Soil Drench (30 ml/pot), 400 mg/l, six weeks after treatment): 100%
Sucker control when applied as a soil drench (systemic action), in words [3]: highly effective
inhibition at 200 µg/mL ([4]; 504 h, Table 2, 200 mg/l spray, three weeks after treatment, read-out: Percent Bud Inhibition Top Two Nodes): 100%
inhibition at 400 µg/mL ([4]; 504 h, Table 2, 400 mg/l spray, three weeks after treatment, read-out: Percent Bud Inhibition Top Two Nodes): 100%
inhibition at 800 µg/mL ([4]; 504 h, Table 2, 800 mg/l spray, three weeks after treatment, read-out: Percent Bud Inhibition Top Two Nodes): 100%
inhibition at 400 µg/mL [4, 8]: 100%
inhibition at 800 µg/mL [4, 9]: 100%
inhibition at 1600 µg/mL [4, 10]: 100%
inhibition at 200 µg/mL ([4]; 1008 h, Table 2, 200 mg/l spray, six weeks after treatment, read-out: Percent Bud Inhibition Top Two Nodes): 100%
inhibition at 400 µg/mL ([4]; 1008 h, Table 2, 400 mg/l spray, six weeks after treatment, read-out: Percent Bud Inhibition Top Two Nodes): 100%
inhibition at 800 µg/mL ([4]; 1008 h, Table 2, 800 mg/l spray, six weeks after treatment, read-out: Percent Bud Inhibition Top Two Nodes): 100%
inhibition at 400 µg/mL [4, 11]: 100%
inhibition at 800 µg/mL [4, 12]: 100%
inhibition at 1600 µg/mL [4, 13]: 100%
Mean # of Nodes with Secondary Suckers [4, 5]: 2.5
Mean Sucker Length (cm) [4, 5]: 30.8 cm
Mean # of Nodes with Secondary Suckers [4, 6]: 1.5
Mean Sucker Length (cm) [4, 6]: 9.6 cm
Mean # of Nodes with Secondary Suckers [4, 7]: 0.5
Mean Sucker Length (cm) [4, 7]: 10.0 cm
Number of Secondary Suckers (axillary buds at lower nodes) [4, 14]: 2.3
Total Sucker Length [4, 14]: 24 cm
Number of Usable Leaves [4, 15]: 6.7
Number of Secondary Suckers (axillary buds at lower nodes) [4, 16]: 1.3
Total Sucker Length [4, 16]: 7 cm
Number of Usable Leaves [4, 17]: 6.7
Number of Secondary Suckers (axillary buds at lower nodes) [4, 18]: 0
Total Sucker Length [4, 18]: 0 cm
Number of Usable Leaves [4, 19]: 6.3

CCCC(NOC/C=C/Cl)=C1C(=O)CC(CC(C)SCC)CC1=O (stereo not drawn) [Compound C-1, 2-[1-(3-trans-chloroallyloxyamino)butylidene]-5-(2-ethylthio-propyl)-cyclohexane-1,3-dione]
inhibition at 400 µg/mL [4, 8]: 0%
inhibition at 800 µg/mL [4, 9]: 0%
inhibition at 1600 µg/mL [4, 10]: 7%
inhibition at 400 µg/mL [4, 11]: 0%
inhibition at 800 µg/mL [4, 12]: 0%
inhibition at 1600 µg/mL [4, 13]: 0%
Number of Secondary Suckers (axillary buds at lower nodes) [4, 14]: 0
Total Sucker Length [4, 14]: 0 cm
Number of Usable Leaves [4, 15]: 7.3
Number of Secondary Suckers (axillary buds at lower nodes) [4, 16]: 0
Total Sucker Length [4, 16]: 0 cm
Number of Usable Leaves [4, 17]: 7.7
Number of Secondary Suckers (axillary buds at lower nodes) [4, 18]: 0
Total Sucker Length [4, 18]: 0 cm
Number of Usable Leaves [4, 19]: 6.0

O=c1ccc(=O)[nH][nH]1 [Compound C-2, maleic hydrazide]
inhibition at 200 µg/mL ([1]; 504 h): 0%
inhibition at 400 µg/mL ([1]; 504 h): 23%
inhibition at 800 µg/mL ([1]; 504 h): 95%
inhibition at 200 µg/mL ([1]; 1008 h): 12.7%
inhibition at 400 µg/mL ([1]; 1008 h): 54.1%
inhibition at 800 µg/mL ([1]; 1008 h): 100%
Mean # of Nodes with Secondary Suckers [1, 5]: 0.3
Mean Sucker Length (cm) [1, 5]: 3.0 cm
Mean # of Nodes with Secondary Suckers [1, 6]: 1.3
Mean Sucker Length (cm) [1, 6]: 76.8 cm
Mean # of Nodes with Secondary Suckers [1, 7]: 5.3
Mean Sucker Length (cm) [1, 7]: 25.8 cm
inhibition at 400 µg/mL ([2]; foliar, 504 h): 15%
inhibition at 400 µg/mL ([2]; foliar, 1008 h): 0%
Sucker control when applied only to the leaves (systemic action), in words [2]: does not translocate effectively
inhibition at 400 µg/mL ([3]; soil, 504 h): 79%
inhibition at 400 µg/mL ([3]; soil, 1008 h): 84%
Observation on new growth (footnote b) [3, 20]: new growth deformedstrap shaped leaves
Observation on suckers at basal nodes (footnote a) [3, 20]: some suckers appearing at basal nodes
Sucker control when applied as a soil drench (systemic action), in words [3]: operates sytemically
inhibition at 200 µg/mL [4, 21]: 10%
inhibition at 400 µg/mL [4, 21]: 88%
inhibition at 800 µg/mL [4, 21]: 93%
inhibition at 200 µg/mL [4, 22]: 31.1%
inhibition at 400 µg/mL [4, 22]: 100%
inhibition at 800 µg/mL [4, 22]: 100%
Mean # of Nodes with Secondary Suckers [4, 5]: 0
Mean Sucker Length (cm) [4, 5]: 0 cm
Mean # of Nodes with Secondary Suckers [4, 6]: 1.5
Mean Sucker Length (cm) [4, 6]: 51.0 cm
Mean # of Nodes with Secondary Suckers [4, 7]: 2.5
Mean Sucker Length (cm) [4, 7]: 31.0 cm

CCC(C)Nc1c([N+](=O)[O-])cc(C(C)(C)C)cc1[N+](=O)[O-] (stereo not shown) [Compound C-3, 4-(1,1-dimethylethyl)-N--(1-methyl-propyl)-2,6-dinitrobenzenamine]
inhibition at 400 µg/mL ([2]; foliar, 1008 h): 3%
Sucker control when applied only to the leaves (systemic action), in words [2]: ineffective
inhibition at 400 µg/mL ([3]; soil, 1008 h): 27%
Sucker control when applied as a soil drench (systemic action), in words [3]: ineffective
